Data reported in ChEMBL document CHEMBL1201862, “PubChem BioAssay data set” (2004).
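Method: 48-hour compound exposure of cells in 96-well plates, five concentrations, linear interpolation of endpoints. GI50 is the concentration that inhibits growth by half.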 The source made the active and inactive calls. Rule as the data show it: active = GI50 up to about 1.1 µM and inactive = higher.

Columns and labels:
Test in all cases: inhibition of tumour cell growth, NCI panel, 48 h
786-0 = tested on: 786-0
EKVX = tested on: EKVX
HCC 2998 = tested on: HCC 2998
HCT-15 = tested on: HCT-15
HL-60 = tested on: HL-60
Hs-578T = tested on: Hs-578T
KM12 = tested on: KM12
LOX IMVI = tested on: LOX IMVI
MDA-MB-231 = tested on: MDA-MB-231
MDA-MB-435 = tested on: MDA-MB-435
MOLT-4 = tested on: MOLT-4
SF-539 = tested on: SF-539
SK-MEL-28 = tested on: SK-MEL-28
SK-MEL-5 = tested on: SK-MEL-5
SK-OV-3 = tested on: SK-OV-3
SNB-75 = tested on: SNB-75
SR = tested on: SR
U-251 = tested on: U-251
UACC-62 = tested on: UACC-62
UO-31 = tested on: UO-31

| SMILES | GI50 (786-0) | GI50 (EKVX) | GI50 (HCC 2998) | GI50 (HCT-15) | GI50 (HL-60) | GI50 (Hs-578T) | GI50 (KM12) | GI50 (LOX IMVI) | GI50 (MDA-MB-231) | GI50 (MDA-MB-435) | GI50 (MOLT-4) | GI50 (SF-539) | GI50 (SK-MEL-28) | GI50 (SK-MEL-5) | GI50 (SK-OV-3) | GI50 (SNB-75) | GI50 (SR) | GI50 (U-251) | GI50 (UACC-62) | GI50 (UO-31) |
| --- | --- | --- | --- | --- | --- | --- | --- | --- | --- | --- | --- | --- | --- | --- | --- | --- | --- | --- | --- | --- |
| O=c1c2ccccc2sc2nc(CCl)nn12 | 12.4 µM (inactive) | 16 µM (inactive) | 13.3 µM (inactive) | 4.6 µM | 14.5 µM (inactive) | 2.17 µM (inactive) | > 100 µM (inactive) | > 100 µM (inactive) | 8.36 µM (inactive) | 8.28 µM (inactive) | 97.5 µM (inactive) | 32.4 µM (inactive) | 10.8 µM (inactive) | > 100 µM (inactive) | 14.8 µM (inactive) | 19.2 µM (inactive) | 10.9 µM (inactive) | > 96.8 µM (inactive) | 5.46 µM (inactive) | 8.28 µM (inactive) |
| COC(=O)c1c(CC(Cc2ccc3c(c2)CCCC3)C(=O)OC)ccc2c1CCCC2 (stereo not given) | > 100 µM (inactive) | 19.5 µM (inactive) | 23.1 µM (inactive) | 46.2 µM | 16.6 µM (inactive) | > 100 µM (inactive) | 40.3 µM (inactive) | 43 µM (inactive) | > 100 µM (inactive) | 42.4 µM (inactive) | 27.2 µM (inactive) | > 100 µM (inactive) | > 100 µM (inactive) | 29.4 µM (inactive) | 39.2 µM (inactive) | > 10 µM (inactive) | 34.7 µM (inactive) | 98.2 µM (inactive) | > 100 µM (inactive) | 82.8 µM (inactive) |
| C[N+](C)(C)CC1Cc2ccccc2C1=O (stereo not given) | 3.32 µM (inactive) | > 10 µM (inactive) | > 10 µM (inactive) | 4.53 µM | 1.56 µM (inactive) | > 10 µM (inactive) | > 10 µM (inactive) | 4.41 µM (inactive) | > 10 µM (inactive) | > 6.87 µM (inactive) | 1.71 µM (inactive) | > 10 µM (inactive) | 5.58 µM (inactive) | > 10 µM (inactive) | > 10 µM (inactive) | > 10 µM (inactive) | 1.22 µM (inactive) | > 10 µM (inactive) | > 10 µM (inactive) | > 10 µM (inactive) |
| COc1cccc2c1C(=O)c1c(O)c3c(c(O)c1C2=O)C[C@@](O)(C(C)=O)C[C@@H]3OC1CC(N(C)C)C(O)C(C)O1 (stereo not given in full) | 0.0562 µM (active) | 0.00485 µM (active) | 0.0333 µM (active) | 0.00389 µM | 0.00387 µM (active) | 0.000123 µM (active) | 0.00485 µM (active) | 0.00223 µM (active) | 0.00132 µM (active) | 0.000489 µM (active) | 0.00309 µM (active) | 0.00417 µM (active) | 0.00516 µM (active) | 0.00236 µM (active) | 0.00593 µM (active) | 0.00346 µM (active) | 0.00135 µM (active) | 0.00425 µM (active) | 0.00427 µM (active) | 0.00371 µM (active) |
| C[C@@H](c1ccccc1)C(CC#N)[C@H]1CCC[C@]1(O)C#Cc1ccc2c(c1)OCO2 (stereo not given in full) | 17.5 µM (inactive) | 19.5 µM (inactive) | 16.3 µM (inactive) | 16 µM | 18.3 µM (inactive) | 20.8 µM (inactive) | 16.7 µM (inactive) | 18.5 µM (inactive) | 17.5 µM (inactive) | 16.6 µM (inactive) | 8.02 µM (inactive) | 10.6 µM (inactive) | 16.1 µM (inactive) | 18.6 µM (inactive) | 18.1 µM (inactive) | 16.5 µM (inactive) | 19.7 µM (inactive) | 16.9 µM (inactive) | 16.6 µM (inactive) | 14.4 µM (inactive) |
| OCCNC1c2cc(Cl)ccc2-c2c(Cl)cc(Cl)cc21 (stereo not given) | 27.3 µM (inactive) | 11.6 µM (inactive) | 35.1 µM (inactive) | 33.7 µM | 25.6 µM (inactive) | 33.1 µM (inactive) | 32.7 µM (inactive) | 34.5 µM (inactive) | 22 µM (inactive) | 35.6 µM (inactive) | 22.1 µM (inactive) | 47.9 µM (inactive) | 92.3 µM (inactive) | > 100 µM (inactive) | 42 µM (inactive) | 37.9 µM (inactive) | 20.5 µM (inactive) | 26.3 µM (inactive) | 34 µM (inactive) | 3.37 µM (inactive) |
| CCCCCCCCCCCCCCCCCC(=O)Nc1ccn(C2OC(CO)C(O)C2O)c(=O)n1 (stereo not given) | > 40.8 µM (inactive) | > 100 µM (inactive) | 8.36 µM (inactive) | 33 µM | 3.43 µM (inactive) | > 100 µM (inactive) | > 65.9 µM (inactive) | 9.89 µM (inactive) | > 100 µM (inactive) | 19.3 µM (inactive) | 0.343 µM (active) | > 76.6 µM (inactive) | 31.9 µM (inactive) | 47.9 µM (inactive) | 35.1 µM (inactive) | 52.6 µM (inactive) | 2.14 µM (inactive) | 19.4 µM (inactive) | 40.3 µM (inactive) | 5.87 µM (inactive) |
